The test system of one series is VEGF-A. The settings on record: literature 1990-2012, ACR abstracts 2006-2013; cited from earlier work.
The subject of another series is IL-6. The conditions noted are these: literature 1990-2012, ACR abstracts 2006-2013; cited from earlier work.
A further series relates to TNFR1. More on the design: key: Y: biomarkers that are known to be positively affected by a treatment method (i.e., biomarkers that are known to have a favorable response to a treatment method); N: biomarkers that are not known to be positively affected by a treatment method (i.e., biomarkers that are known to have an unfavorable response to a treatment method); biomarkers that are known to be positively affected by a ORENCIA, the brand name of Atabacept. The conditions noted are these: literature 1990-2012, ACR abstracts 2006-2013; cited from earlier work.

For the next series, the system named is MMP-3. The settings on record: literature 1990-2012, ACR abstracts 2006-2013; cited from earlier work.
In another series the test system is YKL-40. The settings on record: literature 1990-2012, ACR abstracts 2006-2013; cited from earlier work.
Another series deals with Leptin. The settings on record: literature; Leptin usable as biomarker only in patients with 15% or less body fat; cited from earlier work.
The next series concerns Resistin. The conditions noted are these: literature 1990-2012, ACR abstracts 2006-2013; cited from earlier work.
For a further series, the system named is SAA. The settings on record: literature 1990-2012, ACR abstracts 2006-2013; cited from earlier work.
Another series relates to CRP. The settings on record: literature 1990-2012, ACR abstracts 2006-2013; cited from earlier work.
Another series has as its system VCAM-1. The settings on record: literature 1990-2012, ACR abstracts 2006-2013; cited from earlier work.
The subject of another series is MMP-1. The conditions noted are these: literature 1990-2012, ACR abstracts 2006-2013; cited from earlier work.
Series [1] has as its system Rheumatoid arthritis patients. Nature of the series: Treatment outcome (effectiveness, clinical course) of treatment methods (Example 2). The class given is in vivo, human. How it is done: The patients were treated with the selected treatment methods for at least five months and the post-treatment biomarker levels and VECTRA DA Score were determined by VECTRA® DA test along with CRP level and ESR. The change is VECTRA DA Score, CRP level and ESR was determined to determine the change in disease activity and effectiveness of the selected treatment method.

Series [2] concerns Rheumatoid arthritis patients. The class given is in vivo, human. The settings on record: for Treatment effectiveness (reason for discontinuation / earlier trial): patient 16, January 2014. From the text: A treatment method administered to a patient may be a combination of one or more treatment methods.
The test system of series [3] is Rheumatoid arthritis patients. Put plainly: Change in VECTRA DA Score after treatment, longer duration (Example 3). The settings on record: Patient 6, March 2012. The class given is in vivo, human. How it is done:
Sixteen rheumatoid arthritis patients were selected for treatment by treatment methods that were selected using the algorithm disclosed herein. Some patients were the same as the patients discussed under Example 2. Example 3, however, tracks patients' responses to treatment for a longer duration and uses VECTRA DA Score to determine effectiveness of the treatment.
VECTRA® DA test was conducted for each patient to determine serum levels of the all the biomarkers and VECTRA DA Score in each patient before treatment. The collection of patients closely resembles the random patient population available nationwide as shown by a comparison of the distribution of VECTRA DA Scores in FIG. 6, as noted under Example 2.
The patients were treated with the selected treatment methods and the post-treatment biomarker levels and VECTRA DA Score were determined by VECTRA® DA test. The change is VECTRA DA Score was determined to determine the change in disease activity and effectiveness of the selected treatment method.
The treatment method (one method or a combination of methods) was determined to be effective when the post-treatment disease activity was lower than the pre-treatment disease activity in the patient: when VECTRA DA Score was lower than the pre-treatment VECTRA DA Score. Specifically, the treatment method was determined to be effective when the post-treatment disease activity was at least 20% lower than the pre-treatment disease activity, or when the VECTRA DA Score is decreased to a lower disease activity level after the treatment (i.e., from high to moderate, or high to low, or moderate to low).

The subject of series [4] is Rheumatoid arthritis patients. Nature of the series: VECTRA DA test: serum levels of biomarkers, % elevation over control (InFoRM study). The class given is in vivo, human. The settings on record: Patient 6, March 2012. From the text: VECTRA® DA test is a multi-biomarker disease activity (MBDA) blood test sold by Crescendo Bioscience. The test provides a quantitative assessment of rheumatoid arthritis disease activity in patients by using twelve protein biomarkers—Vascular Cell Adhesion Molecule 1 (VCAM-1), Epidermal Growth Factor (EGF), Vascular Endothelial Growth Factor A (VEGF-A), Interleukin-6 (IL-6), Tumor Necrosis Factor Receptor Type 1 (TNFR1), Matrix Metalloproteinase-1 (MMP-1), Matrix Metalloproteinase-3 (MMP-3), YKL-40, Leptin, Resistin, Serum Amyloid A (SAA), and C-Reactive Protein (CRP). The twelve biomarkers in VECTRA® DA test are relevant to key aspects of the pathophysiology of RA. Li et al., Curr. Med. Res. & Opin. 29(1): 85-92 (2013). The test measures the concentrations of the biomarkers and provides the concentrations and percentile (RA percentile) value for each biomarker.
The VECTRA DA MBDA test uses Meso Scale Discovery (MSD, Gaithersburg, Md., USA) sandwich immunoassay electrochemiluminescent technology to measure biomarker levels. Eastman et al., J. of Pharmaceutical and Biomedical Analysis 70: 415-424 (2012). In the immunoassay, capture antibodies are spotted on carbon electrodes in a planar array and detection antibodies are labeled with an electrochemiluminescent ruthenium reporter. Id. Upon electrical stimulation, light is produced from reporter molecules bound to the electrode to determine biomarker concentration.

Where [5] appears, read: Patient 6, outcome not reflected by change in any of the three disease markers, earlier treatments not algorithm-selected.

For `O=C(O)c1cc(/N=N/c2ccc(S(=O)(=O)Nc3ccccn3)cc2)ccc1O` [S, Sulfasalazine], the “VEGF-A positively affected by treatment method” value in the series on VEGF-A is recorded as “Y”. Besides, in the series with IL-6, the “IL-6 positively affected by treatment method” value (from here on “IL-6 positively affected”) is recorded as “Y”. Moreover, the “TNFR1 positively affected by treatment method” value (shortened to “TNFR1 positively affected”) with TNFR1 is on record as “Y”. In addition, the “MMP-3 positively affected by treatment method” value (shortened to “MMP-3 positively affected”) in the series with MMP-3 is “Y”. Further, the “YKL-40 positively affected by treatment method” value (“YKL-40 positively affected” for short) in the series with YKL-40 was “N”. The “Leptin positively affected by treatment method” value in the series with Leptin is on record as “N”. Moreover, the “Resistin positively affected by treatment method” value (shortened to “Resistin positively affected”) in the series on Resistin was “N”. For the same molecule, the “SAA positively affected by treatment method” value (“SAA positively affected” for short) in the series with SAA is given as “Y”. Also, the “CRP positively affected by treatment method” value (shortened to “CRP positively affected”) in the series on CRP is recorded as “Y”.

On to `CCN(CCO)CCCC(C)Nc1ccnc2cc(Cl)ccc12` (stereo not shown) [P, Hydroxychloroquine], for which the “VCAM-1 positively affected by treatment method” value (“VCAM-1 positively affected” for short) in the series with VCAM-1 is on record as “N”. For the same molecule, in the series with VEGF-A, the “VEGF-A positively affected by treatment method” value was “N”. Besides, the “IL-6 positively affected” value with IL-6 is given as “Y”. Moreover, the “TNFR1 positively affected” value with TNFR1 is given as “N”. The “MMP-1 positively affected by treatment method” value (shortened to “MMP-1 positively affected”) with MMP-1 was “N”. Also, the “MMP-3 positively affected” value with MMP-3 is “N”. For the same molecule, the “YKL-40 positively affected” value in the series on YKL-40 is reported as “N”. In addition, in the series with Resistin, the “Resistin positively affected” value was “N”. In addition, in the series with SAA, the “SAA positively affected” value is recorded as “Y”. Moreover, the “CRP positively affected” value in the series on CRP is on record as “Y”.

With `Cn1cnc([N+](=O)[O-])c1Sc1ncnc2nc[nH]c12` [Azathioprine (AZA), Azathioprine], the “Treatment Outcome” value was “(after failing” in series [1] (setting [5]) and “Not effective” in series [1] (Patient 16, AZA from March 2012, triple therapy with CIMZIA from May 2012, based on VECTRA DA score). In addition, the “Treatment effectiveness (reason for discontinuation / earlier trial)” value in [2] was “to inefficacy”.

With Rituximab, the “VCAM-1 positively affected” value in the series with VCAM-1 is reported as “N”. For the same molecule, the “IL-6 positively affected” value in the series on IL-6 is on record as “Y”. Besides, the “MMP-1 positively affected” value in the series on MMP-1 is “N”. Also, the “MMP-3 positively affected” value in the series with MMP-3 is reported as “N”. The “YKL-40 positively affected” value in the series with YKL-40 is “N”. Besides, the “Leptin positively affected by treatment method” value with Leptin is “N”. The “Resistin positively affected” value in the series on Resistin is “N”. The “SAA positively affected” value in the series on SAA was “N”. Also, the “CRP positively affected” value with CRP is listed as “Y”.

With `C[C@@H]1CCN(C(=O)CC#N)C[C@@H]1N(C)c1ncnc2[nH]ccc12` [TOFAC, Tofacitinib], the “Tapering of oral steroid, Prednisone” value in series [2] (patient 16, XELJANZ 5 mg twice a day added March 2014) is given as “XELJANZ allowed”. Also, the “IL-6 positively affected” value with IL-6 was “Y”. Also, the “MMP-1 positively affected” value in the series on MMP-1 is reported as “Y”. Besides, in the series on MMP-3, the “MMP-3 positively affected” value is “Y”.

`Cc1oncc1C(=O)Nc1ccc(C(F)(F)F)cc1` [ARA, Leflunomide]: the “Treatment Outcome” value in series [1] (setting [5]) is “(after failing”. Moreover, in series [3], the “Arthritis activity class of VECTRA DA Score” value is recorded as “high (a VECTRA DA Score of >44 reflects high disease activity)” and the “VECTRA DA Score” value came out at 74. In series [2] (in vivo), the “Patient could tolerate the drug in the past” value is “Patient could not”, the “Toxicity for which the treatment was discontinued” value is on record as “to bone marrow” and the “WBC count relative to normal (reason for discontinuation)” value is recorded as “due to below”. Further, in [4], the CRP elevated level was 93%, the IL-6 elevated level worked out at 98%, the Leptin elevated level was 90% and the MMP-1 elevated level was 40%. Moreover, in series [4], the MMP-3 elevated level is 91%, the Resistin elevated level is 63%, the SAA elevated level is listed as 97% and the TNF-R1 elevated level turned out to be 73%. In series [4], this molecule came in with a VCAM-1 elevated level of 85%, a VEGF-A elevated level of 84% and a YKL-40 elevated level of 41%. Moreover, the “VCAM-1 positively affected” value in the series on VCAM-1 is “Y”. In addition, in the series with IL-6, the “IL-6 positively affected” value is “Y”. The “TNFR1 positively affected” value in the series on TNFR1 is “Y”. Further, in the series with MMP-1, the “MMP-1 positively affected” value is given as “Y”. Besides, the “MMP-3 positively affected” value with MMP-3 is “Y”. Further, the “Resistin positively affected” value with Resistin was “N”. In the series on SAA, the “SAA positively affected” value was “Y”.

B1: Certolizumab pegol (antibody, chains of the INN, looked up, V domains shown)
VH: EVQLVESGGGLVQPGGSLRLSCAASGYVFTDYGMNWVRQAPGKGLEWMGWINTYIGEPIYADSVKGRFTFSLDTSKSTAYLQMNSLRAEDTAVYYCARGYRSYAMDYWGQGTLVTVSS
VL: DIQMTQSPSSLSASVGDRVTITCKASQNVGTNVAWYQQKPGKAPKALIYSASFLYSGVPYRFSGSGSGTDFTLTISSLQPEDFATYYCQQYNIYPLTFGQGTKVEIK
modifications: Fab' PEG
Regarding B1, the “Treatment Outcome” value in [1] (setting [5]) is “(after failing”.

B2: TNF (CIMZIA) (antibody, chains of the INN, looked up, V domains shown)
VH: B1 VH
VL: B1 VL
modifications: Fab' PEG
Take B2: the “Treatment effectiveness (reason for discontinuation / earlier trial)” value in series [2] is “without success”.

The values are drawn from US9387246B2, “Treatment methods for rheumatoid arthritis” (priority 2013, dated 2016).
